Measurements from patent US20240165250A1, “Bifunctional Folate Receptor Binding Compounds” (Lycia Therapeutics, Inc., priority 2021, published 2024).
Read-outs that look alike come from different tables or passages of the source. One block for each molecule: values may come before it.

What was measured:
[1] = molecular target: T1, TNFα trimer (Homo sapiens, UniProt P01375); experiment: SPR binding kinetics of compounds to TNFα trimer (single-cycle kinetics); settings: for kon: read-out: ka
T1 construct: Ligand MW (Da) 53729.8; fused on or other part: Three copies of soluble TNF-alpha joined by linkers into one polypeptide; The protein is biotinylated and captured on immobilised streptavidin
T1 sequence (P01375 88-233 limits assumed): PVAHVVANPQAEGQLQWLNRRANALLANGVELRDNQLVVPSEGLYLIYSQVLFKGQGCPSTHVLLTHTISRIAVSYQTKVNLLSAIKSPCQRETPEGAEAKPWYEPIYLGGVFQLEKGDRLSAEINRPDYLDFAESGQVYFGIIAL
Procedure: Streptavidin 100 μg/mL Streptavidin (Invitrogen Cat #:434302) diluted in 10 mM sodium acetate, pH 4.5) was immobilized to both the reference and active surfaces as described in Example 51. The surfaces were conditioned with three injections of running Buffer (10 mM HEPES, 150 mM NaCl, 0.05% T20, pH 7.5, 2% DMSO) at a flow rate of 10 μL/min, Contact time: 60 s. Flow rate: 10 μL/min. The active surface was treated with biotinylated linked TNFα timer 20 μg/mL diluted in running buffer at a flow rate of 5 μL/min contact time: 600 s, yielding a final response of ˜3000 RU. Example compounds were then serially diluted 1:1 in running buffer (10 mM HEPES, 150 mM NaCl, 0.05% T20, pH 7.5, 2% DMSO) from 30 uM to 937.5 nM and flowed over the active and reference surfaces from lowest concentration to greatest concentration in the single-cycle kinetics format, and then allowed to dissociate in running buffer for 7200 s, at 30 μL/min. Sensorgrams were solvent corrected, double-referenced, and the data fitted and analyzed in Biacore Insight Evaluation Software Version 3.0.11.15423.

[2] = molecular target: T2, TNFα (Homo sapiens, UniProt P01375+P14207); experiment: Compound mediated uptake of TNFα-pHrodo in THP-1 cells (flow cytometry); format: cell-based; settings: 125 nM-20 μM, 24 hrs, FIG. 4
T2 construct: made in house
T2 sequence (P01375 77-233 limits assumed, species assumed): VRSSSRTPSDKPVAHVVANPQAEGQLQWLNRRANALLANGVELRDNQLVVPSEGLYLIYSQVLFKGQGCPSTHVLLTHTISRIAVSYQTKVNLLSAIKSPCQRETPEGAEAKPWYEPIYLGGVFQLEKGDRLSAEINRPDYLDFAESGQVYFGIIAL
T2 sequence (P14207 17-230 limits assumed, species assumed): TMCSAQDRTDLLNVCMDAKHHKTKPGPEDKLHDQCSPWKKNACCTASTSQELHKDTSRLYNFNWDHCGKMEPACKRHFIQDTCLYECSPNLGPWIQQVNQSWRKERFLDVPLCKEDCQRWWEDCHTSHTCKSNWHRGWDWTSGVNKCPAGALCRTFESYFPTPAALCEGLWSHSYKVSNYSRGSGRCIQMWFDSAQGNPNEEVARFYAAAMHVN
Procedure: THP-1 cells, a monocytic leukemia cell line that endogenously express folate receptor beta, were used as a model system to measure example compound stimulated uptake of in-house produced TNFα conjugated to the pH sensitive fluorescent dye pHrodo green (ThermoFisher Scientific #P35369).
THP-1 cells were maintained in RPMI (Gibco #61870143) with 10% v/v FBS (VWR #89510-188) with 2 mM L-alanyl-L-glutamine dipeptide, 100 units/ml penicillin and 100 ug/ml streptomycin (Gibco #15140148). Cells were pelleted, resuspended in folate-free RPMI (Gibco #27016021) and seeded at 50,000 cells per well of a 96 well plate. Example compound was added to each well as a log 2 dilution series ranging from 20 μM to 125 nM final concentration. Cells were incubated for 24 hrs and washed/resuspended in phosphate buffered saline (pH 7.4) with 1% w/v BSA. Uptake was measured using a Novocyte Advanteon Flow Cytometer (Agilent Technologies) with the […] and FITC detection configuration.

[3] = molecular target: T2, TNFα; experiment: Compound mediated depletion of HiBiT-TNFα from the medium of THP-1 cells; format: cell-based; settings: compound 10 μM, FIG. 6
Excerpt: An in-house recombinantly expressed and purified N-terminal fusion of HiBiT with TNFα was used to measure example compound-stimulated depletion from the media. HiBiT and largeBiT are split nanoluciferase polypeptides that result in complementation of luciferase activity in the presence of both polypeptides. The level of HiBit-TNFα in the media over time can be measure by sampling the media and mixing with the Nano-Glo HiBiT Extracellular Detection Reagent (Promega Corporation) containing the largeBiT polypeptide and nanoluciferase substrate.
THP-1 cells were seeded at 100,000 cells per well of 12 well plate with 1 mL RPMI+10% w/w FBS+1× penicillin/streptomycin and differentiated using 20 ng/mL phorbol myristate acetate (Sigma-Aldrich #P8139) for 72 hrs. After 72 hrs the growth medium was replaced with 1 ml RPMI+10% v/v FBS+1× penicillin/streptomycin containing 12.5 nM HiBit-TNFα. Where noted example compound was added at 10 μM final concentration. The medium was sampled (50 μl) at 0, 24, 48 and 96 hr and luciferase activity was measured using the Nano-Glo HiBiT Extracellular Detection Reagent.

[4] = molecular target: T2, TNFα; experiment: Compound mediated degradation of TNFα in THP-1 cells (pulse-chase, TNFα-biotin blot); format: cell-based; settings: PMA differentiated THP-1 cells, compound 10 μM, FIG. 5
Procedure: To measure degradation of internalized TNFα, a pulse-chase experiment was performed whereby cells were treated with +/− example compounds and/or +/− protease inhibitors and incubated for 1 hr in media containing TNFα-biotin to allow uptake and then washed and incubated 90 minutes in fresh media without TNFα to allow degradation. Samples were collected after the pulse phase (60 min) and chase phase (90 min) to measure uptake and degradation, respectively.
THP-1 cells were seeded at 100,000 cells per well of 12 well plate with 1 mL RPMI+10% w/w FBS+1× penicillin/streptomycin and differentiated using 20 ng/mL phorbol myristate acetate (Sigma-Aldrich #P8139) for 72 hrs. After 72 hrs media was replaced with 1 ml RPMI+10% v/v FBS+1× penicillin/streptomycin and TNFα-biotin (AcroBiosystems #50-201-9879) was added to 12.5 nM final concentration. Where noted example compound was added at 10 μM final concentration and protease inhibitors were added at 100 ug/ml final concentration for leupeptin (Sigma-Aldrich #L2884) or 1 μg/ml final concentration for pepstatin A (Sigma-Aldrich #BP26715). […] Relative quantification of bands was performed using the ImageLab software (BioRad) with endogenously biotinylated proteins serving as endogenous controls. […]

[5] = molecular target: T3, FOLR2 (Homo sapiens, UniProt P14207); experiment: SPR binding kinetics of compounds to folate receptor (FOLR2); settings: immobilized FOLR2, compound 3.125-100 nM
T3 construct: purchased Acro Biosystems FO2-H5223-100 μg
T3 sequence (P14207 17-230): as the sequence (P14207 17-230 limits assumed, species assumed) above
Procedure: A Biacore 8K+ was used to measure the association and dissociation rates of example compounds to FOLR2 (Acro Biosystems, Cat: FO2-H5223-100 μg). Briefly, FOLR2 was reconstituted according to the manufacture's instructions to 200 μg/mL. Both the active and reference surfaces of a Cytiva CM5 Series S Sensor Chip were activated with a 1:1 mixture of 400 mM EDC and 100 mM NHS for 420 s at 10 μL/min. 25 μg/mL FOLR2 diluted in Sodium Acetate pH 5.5 was injected on the active channel (Flow Cell 2) for 420 s at 10p/min. Both the reference and active surfaces were then capped with 1M ethanolamine, pH 8.5 for 420 s, achieving an immobilization level of ˜4200 RU. Example compounds were serially diluted 1:1 in running buffer (10 mM HEPES, 150 mM NaCl, 0.05% T20, pH 7.5, 2% DMSO) from 100 nM to 3.125 nM and flowed over the active and reference surfaces for 120 s, and then allowed to dissociate in running buffer for 600 s, at 30 uL/min. The FOLR2 immobilized active surface and the reference surface were regenerated with a 30 s pulse of Sodium Acetate pH 5.5 at 30 μL/min. Sensorgrams were solvent corrected, double-referenced, and the data fitted and analyzed in Biacore Insight Evaluation Software Version 3.0.11.15423.
FIG. 1 illustrates the SPR sensorgrams for various concentrations of compound I-21 (3.125 nM to 100 nM) to folate receptor 2 (FOLR2), illustrating 1:1 binding.

[6] = SPR single cycle kinetics, immobilized TNFα trimer
[7] = SPR single cycle kinetics, immobilized TNFα trimer, compound 937.5 nM-30 uM

SMILES: Cc1nc2cc(F)c(-c3cnc(OCCCCCn4cc(COCCOCCNC(=O)CC[C@H](NC(=O)c5ccc(NCc6cnc7nc(N)nc(O)c7n6)cc5)C(=O)O)nn4)nc3)nc2c(N[C@H](C)c2cc(C#N)ccc2F)c1Cl [Compound I-16, N2-(4-(((2-amino-4-hydroxypteridin-6-yl)methyl)amino)benzoyl)-N5-(2-(2-((1-(5-((5-(7-chloro-8-(((R)-1-(5-cyano-2-fluorophenyl)ethyl)amino)-3-fluoro-6-methyl-1,5-naphthyridin-2-yl)pyrimidin-2-yl)oxy)pentyl)-1H-1,2,3-triazol-4-yl)methoxy)ethoxy)ethyl)-L-glutamine]
binding mode from SPR sensorgrams ([1]; FIGS. 2A-2C): 1:1 binding
Kd [1, 6]: 50.2 nM
Rmax [1, 6]: 43.7 RU
kd [1, 6]: 5.81e-05 s⁻¹
Stoichiometry ([1]; SPR, Rmax versus expected Rmax): 0.7
kon [1]: 1160 M⁻¹ s⁻¹

degradation and rescue of TNFα [4]: mediated degradation and rescue of TNFα
SMILES: Cc1nc2cc(F)c(-c3cnc(OCCCCCn4cc(COCCOCCOCCOCCNC(=O)CC[C@H](NC(=O)c5ccc(NCc6cnc7nc(N)nc(O)c7n6)cc5)C(=O)O)nn4)nc3)nc2c(N[C@H](C)c2cc(C#N)ccc2F)c1Cl [Compound I-17, (S)-18-(4-(((2-amino-4-hydroxypteridin-6-yl)methyl)amino)benzamido)-1-(1-(5-((5-(7-chloro-8-(((R)-1-(5-cyano-2-fluorophenyl)ethyl)amino)-3-fluoro-6-methyl-1,5-naphthyridin-2-yl)pyrimidin-2-yl)oxy)pentyl)-1H-1,2,3-triazol-4-yl)-15-oxo-2,5,8,11-tetraoxa-14-azanonadecan-19-oic acid]
uptake of labelled TNFα (median fluorescence intensity of pHrodo dye) [2]: stimulated uptake of labelled TNFα in THP-1 cells in a dose-dependent manner
rate of depletion of HiBiT-TNFα from medium ([3]; first 24 hours): more rapid depletion of HiBiT-TNFα over the first 24 hours
total depletion of HiBiT-TNFα from the culture medium ([3]; sampled to 96 hr): greater total depletion of HiBiT-TNFα from the culture medium

Kd [1, 6]: 80.5 nM
kon [1, 7]: 963 M⁻¹ s⁻¹
Kd [5]: 0.833 nM
kon ([5]; read-out: ka): 5.57e+06 M⁻¹ s⁻¹
SMILES: Cc1nc2cc(F)c(-c3cnc(OCCCCCn4cc(COCCOCCOCCOCCNC(=O)[C@H](CCC(=O)O)NC(=O)c5ccc(NCc6cnc7nc(N)nc(O)c7n6)cc5)nn4)nc3)nc2c(N[C@H](C)c2cc(C#N)ccc2F)c1Cl [Compound I-21, (S)-16-(4-(((2-amino-4-hydroxypteridin-6-yl)methyl)amino)benzamido)-1-(1-(5-((5-(7-chloro-8-(((R)-1-(5-cyano-2-fluorophenyl)ethyl)amino)-3-fluoro-6-methyl-1,5-naphthyridin-2-yl)pyrimidin-2-yl)oxy)pentyl)-1H-1,2,3-triazol-4-yl)-15-oxo-2,5,8,11-tetraoxa-14-azanonadecan-19-oic acid]

Kd [1, 6]: 4.18 nM
kon [1, 7]: 874 M⁻¹ s⁻¹
SMILES: Nc1nc(O)c2nc(CNc3ccc(C(=O)N[C@@H](CCC(=O)NCCOCCOCCOCCOCc4cn(CCCCCOc5ccc(-c6ccc7nc(COc8cccc(N9CCCC9=O)c8)n(Cc8ccccc8OC(F)F)c7c6)cn5)nn4)C(=O)O)cc3)cnc2n1 [Compound I-25, (S)-18-(4-(((2-amino-4-hydroxypteridin-6-yl)methyl)amino)benzamido)-1-(1-(5-((5-(1-(2-(difluoromethoxy)benzyl)-2-((3-(2-oxopyrrolidin-1-yl)phenoxy)methyl)-1H-benzo[d]imidazol-6-yl)pyridin-2-yl)oxy)pentyl)-1H-1,2,3-triazol-4-yl)-15-oxo-2,5,8,11-tetraoxa-14-azanonadecan-19-oic acid]
